Values quoted from earlier work as cited in patent US20090263481A1, “LEVETIRACETAM FORMULATIONS” (priority 2008, published 2009).
Read-outs that look alike come from different tables or passages of the source.

What was measured:
[1] = not given; remark: listed apart in the source

- solubility (descriptive) (acetonitrile): sparingly soluble
- solubility (descriptive) (chloroform): freely soluble
- solubility (descriptive) (ethanol): soluble
- solubility (descriptive) (methanol): freely soluble
- solubility (descriptive) (n-hexane): practically insoluble
- aqueous solubility (water): 104 g/100 mL
- solubility (descriptive) (water): very soluble
- bound to plasma proteins (plasma proteins): less than 10%
- dose range over which pharmacokinetics are linear ([1]; in vivo): 500 to 5000 mg
- absorption after oral administration (descriptive) ([1]; oral administration): rapidly and almost completely absorbed
- time of peak plasma concentrations ([1]; oral administration to fasted subjects): one
- decrease of Cmax by food ([1]; oral, with food): 20%
- time to steady state ([1]; twice-daily dosing): 2 days
Structure (SMILES): CC[C@@H](C(N)=O)N1CCCC1=O [Levetiracetam, (−)-(S)-α-ethyl-2-oxo-1-pyrrolidine acetamide]
